Series [1] can be described thus: clinical. As to conditions: human, in vivo. An excerpt: Neither TPI renal clearance (CLren) nor or tubular secretory Clearance (CLsec) were associated with SNPs in MATE1 (rs2289669 or rs2252281) when tested individually (FIG. 8). […] (FIGS. 8-10). TPI is strongly associated with PFS and OS with regard to renal clearance difference by OCT2 and MATE1 gene-gene interaction.

The conditions of series [2]: cited from earlier work.

The structures appear in SMILES notation. Structures can show the parent of a compound that is named as a salt. Where two headings read alike, the source gives them in different places.

As to `N=C1CCCN1Cc1[nH]c(=O)[nH]c(=O)c1Cl` [TPI, tipiracil hydrochloride], the Clrenal in series [1] turned out to be 29.6 L/h. In series [1] (Clrenal), this compound had a CL renal of 555 mL/min.
For `CN(C)C(=N)N=C(N)N` [metformin, N,N-Dimethylimidodicarbonimidic diamide], the “CLrenal and CLsec” value in series [2] (healthy volunteers, OCT2 rs316019 heterozygote or homozygote along with MATE1 rs225281 heterozygote) was “significantly lower”. Moreover, the Clrenal entry in series [2] (stratum 3 (MATE1 WT and OCT2 HM) compared with stratum 1 (MATE1 WT and OCT2 WT)) is recorded as “relatively higher”.

The values are drawn from patent publication US20190233884A1 (University of Southern California, priority 2016, published 2019).
